Patent US8546357B2, “Boron-containing small molecules for controlling ectoparasites” (priority 2011, dated 2013)

Experiments:
[1] = tested on: Lone star tick larvae (Amblyomma americanum); experiment: Larval immersion microassay against larval-stage Lone star ticks; conditions: Amblyomma americanum, 24 h, read-out: activity (percent larval mortality)
Protocol: The larval immersion microassay was conducted as described in detail in White, et al., J. Med. Entomol. 41: 1034-1042 (2004). Compounds of the invention were formulated in dimethylsulfoxide (DMSO) to prepare a stock solution at a concentration of at least 10 mM. Using 96-well microtiter plates, an aliquot of the mM sample was subsequently diluted in a water-based solution containing 1% ethanol and 0.2% Triton X-100, to obtain the desired concentration (typically 0.3 mM or lower) of compound in a volume of 0.1 ml (minimum n=3 replicates per compound or concentration). Approximately 30-50 Lone star tick larvae (Amblyomma americanum) were submerged into each well containing compounds. After a 30 minute immersion period, larvae were removed with a wide-bore pipette tip in 0.05 ml of fluid, dispensed into a commercial paper tissue biopsy bag which was sealed at the top with a plastic dialysis clip, inverted and allowed to air dry for 60 minutes. Bags containing larvae were then incubated at approximately 27 degrees Celsius and >90% relative humidity. After 24 hours, bags were opened, live and dead larvae were counted and percent larval mortality was calculated.
7 and 8 contain one chiral center each, and are racemic mixtures comprised of approximately 50% R- and 50% S-enantiomer. In vitro and surrogate animal (rat) studies were conducted to evaluate the biological activity of the R- and S-enantiomers of 7 and 8. For the in vitro study, larvae of the Lone star tick (Amblyomma americanum) were exposed to 9, 10, 11 and 12 using the larval immersion microassay at a concentration of no greater than 0.3 mM. Following exposure, larvae were removed, transferred to a tissue biopsy bag and incubated at approximately 27 degrees Celsius and >90% relative humidity. After 24 hours, biopsy bags were opened and the numbers of live and dead larvae were determined

[2] = tested on: adult American dog tick (Dermacentor variabilis); experiment: Therapeutic (knockdown) and residual efficacy against adult American dog tick infestations on dogs, oral; type: in vivo; conditions: for Geometric mean group live parasite counts / % efficacy: Table 6, oral capsule 25 mg/kg
Protocol: (§1) The therapeutic (knockdown) and residual efficacy of 5, administered orally at a point dose of 25 mg/kg bodyweight, was evaluated against adult American dog tick (D. variabilis) infestations on dogs. Six beagle dogs were allocated to one of two treatment groups, an untreated control group (n=4 dogs) or 5 group (n=2 dogs). On Day 0, two dogs were treated with 5 via oral gavage (25 mg/ml 5, dissolved in a solution of 55% polyethylene glycol-300, 35% propylene glycol and 10% water) at a point dose of approximately 25 mg/kg. Twenty-four (24) hours before treatment (Day −1), all dogs were infested with approximately 50 unfed, adult-stage American dog ticks (D. variabilis; approximately 50% male and 50% female). On Day 1, approximately 24 hours after treatment, thumb counts were conducted to determine the number and life-status classification of ticks present on all dogs (normal, moribund or dead; attached or detached). Ticks were not removed during thumb counts. On Day 2, approximately 48 hours after treatment, all ticks were classified and removed from dogs. Dogs were re-infested with approximately 50 unfed, adult D. variabilis ticks on Days 5 and 12, with tick classification, counts and removal on Days 7 and 14 (approximately 48 hours after each infestation).
(§2) The therapeutic (knockdown) and residual efficacy of 7 and 8, each administered orally at a point dose of 25 mg/kg bodyweight, was evaluated against adult tick (Dermacentor variabilis and Rhipicephalus sanguineus) and adult cat flea (Ctenocephalides felis) infestations on dogs. Twelve (12) male and female beagle dogs were randomly allocated to one of three treatment groups, four (4) dogs per group: Untreated control; 7, 25 mg/kg; and 8, 25 mg/kg. On Day −1, all dogs were infested with approximately 50 unfed, adult D. variabilis ticks. On Day 0, dogs were orally administered gelatin capsules containing either 7 or 8 (50% technical active, 47% microcrystalline cellulose and 3% croscarmellose sodium, w/w). Ticks were counted and classified, but not removed, on all dogs on Day 1, approximately 24 hours after treatment. On Day 2, approximately 48 hours after treatment, ticks were counted, classified and removed. Dogs were re-infested with the same number of D. variabilis ticks on Days 5, 12, 19 and 28 and tick counts were conducted on Days 7, 14, 21 and 30.
(§3) The therapeutic (knockdown) and residual efficacy of 7, administered orally at a point dose of 35 mg/kg bodyweight, was evaluated against adult tick (Dermacentor variabilis and Rhipicephalus sanguineus) and adult cat flea (Ctenocephalides felis) infestations on dogs. Twelve (12) male and female beagle dogs were allocated to either an untreated, negative control group or 7 group (n=6 dogs per group). Dogs were infested with approximately 50 unfed, adult D. variabilis ticks on Days −1, 5, 12, 19, 28, 35 and 42. On Day 0, dogs were orally administered gelatin capsules containing Compound 8194 (50% technical active, 47% microcrystalline cellulose and 3% croscarmellose sodium, w/w) at a point dose of 35 mg/kg. D. variabilis tick counts and classification were conducted on Day 1 (thumb count, approximately 24 hours after treatment) and Days 2, 7, 14, 21, 30, 37 and 44 (approximately 48 hours after treatment). Following removal of D. variabilis ticks on Day 30, all dogs were co-infested with approximately 50 unfed, adult brown dog ticks (R. sanguineus) and approximately 100 unfed, adult cat fleas (C. felis). Brown dog tick and cat flea counts were conducted on Day 32 (approximately 48 hours after infestation). GM percent efficacy of treatments against both tick species and fleas was calculated using the following formula: […]
The therapeutic (knockdown) and residual efficacy of S-enantiomer, 9, administered orally at a point dose of 25 mg/kg bodyweight, was evaluated against adult tick (Dermacentor variabilis and Rhipicephalus sanguineus) and adult cat flea (Ctenocephalides felis) infestations on dogs. […]

[3] = tested on: brown dog tick (Rhipicephalus sanguineus); experiment: Residual efficacy against adult brown dog tick infestations on dogs, oral; type: in vivo; conditions: Table 6, oral capsule 25 mg/kg, Day 32
Protocol: (§4) Immediately following removal of D. variabilis ticks on Day 30, dogs were co-infested with approximately 50 adult, unfed brown dog ticks (R. sanguineus, approximately 50% male and 50% female) and approximately 100 adult, unfed cat fleas (C. felis, approximately 50% male and 50% female). Ticks and fleas were counted and removed on Day 32 (approximately 48 hours after infestation). GM percent efficacy of treatments against both tick species and fleas was calculated using the following formula: […]
as §3
(§5) The therapeutic (knockdown) and residual efficacy of S-enantiomer, 9, administered orally at a point dose of 25 mg/kg bodyweight, was evaluated against adult tick (Dermacentor variabilis and Rhipicephalus sanguineus) and adult cat flea (Ctenocephalides felis) infestations on dogs. Twelve (12) male and female beagle dogs were allocated to either an untreated, negative control group or 9 group (n=6 dogs per group). Dogs were infested with approximately 50 unfed, adult D. variabilis ticks on Days −1, 5, 12, 19, and 28. On Day 0, dogs were orally administered gelatin capsules containing 9 (50% technical active, 47% microcrystalline cellulose and 3% croscarmellose sodium, w/w) at a point dose of 25 mg/kg. D. variabilis tick counts and classification were conducted on Day 1 (thumb count, approximately 24 hours after treatment) and Days 2, 7, 14, 21 and 30 (approximately 48 hours after treatment). Following removal of D. variabilis ticks on Day 30, all dogs were co-infested with approximately 50 unfed, adult brown dog ticks (R. sanguineus) and approximately 100 unfed, adult cat fleas (C. felis). Brown dog tick and cat flea counts were conducted on Day 32 (approximately 48 hours after infestation). GM percent efficacy of treatments against both tick species and fleas was calculated using the following formula: […]

[4] = tested on: cat flea (Ctenocephalides felis); experiment: Residual efficacy against adult cat flea infestations on dogs, oral; type: in vivo; conditions: Table 6, oral capsule 25 mg/kg, Day 32
Protocol: as §4, §3, §5

[5] = Tolerability of oral treatment in dogs; type: in vivo, dog; conditions: Example 10, oral capsule 25 mg/kg
Protocol: as §1, §2
The therapeutic (knockdown) and residual efficacy of 7, administered orally at a point dose of 35 mg/kg bodyweight, was evaluated against adult tick (Dermacentor variabilis and Rhipicephalus sanguineus) and adult cat flea (Ctenocephalides felis) infestations on dogs. Twelve (12) male and female beagle dogs were allocated to either an untreated, negative control group or 7 group (n=6 dogs per group). Dogs were infested with approximately 50 unfed, adult D. variabilis ticks on Days −1, 5, 12, 19, 28, 35 and 42. On Day 0, dogs were orally administered gelatin capsules containing Compound 8194 (50% technical active, 47% microcrystalline cellulose and 3% croscarmellose sodium, w/w) at a point dose of 35 mg/kg. […] GM percent efficacy of treatments against both tick species and fleas was calculated using the following formula: […]
The therapeutic efficacy and speed of kill of 7, administered orally at a point dose of 20 mg/kg bodyweight, was evaluated against adult cat flea (Ctenocephalides felis) infestations on dogs. […]

[6] = tested on: American dog tick (Dermacentor variabilis) nymphs; experiment: Efficacy against nymphal-stage American dog ticks on rats, oral; type: in vivo; conditions: fipronil positive control, oral 10 mg/kg bodyweight, all studies
Protocol: Evaluations were conducted using a modified version of the assay as described in Gutierrez et al., J. Med. Entomol. 43(3): 526-532 (2006). This assay may be modified by simply using different tick species (the reference describes Amblyomma americanum ticks), such as Dermacentor variabilis or Rhipicephalus sanguineus ticks, as well as different life-stages (larval, nymphal or adult). Further, the reference describes using topical application methods, but oral, transdermal and subcutaneous injection routes of administration may be used.
In these studies, adult male or female rats, approximately 300 grams in size, were randomly assigned to a treatment group or a control (untreated negative control or fipronil positive control) group. Each group consisted of three (3) to five (5) rats. […] On Day 2, approximately forty-eight (48) hours after treatment, live and dead ticks were removed from animals and counted.
Live tick counts were transformed using the natural logarithm transformation plus one (Ln count+1); addition of one to each count served to adjust for counts that were zero. […] GM percent efficacy of treatments was calculated using the following formula:
Enantiomers were evaluated for activity against American dog tick (Dermacentor variabilis) nymphs on rats. […] On Day 2, approximately forty-eight (48) hours after treatment, live and dead ticks were removed from animals and counted. […]

| Structure (SMILES) | mortality at 300 µM [1] | continued residual efficacy ([2]; Example 10, oral capsule 25 mg/kg, through Day 21) | Geometric mean group live parasite counts ([2]; Day 1) | % efficacy ([2]; Day 2) | Geometric mean group live parasite counts ([2]; Day 2) | % efficacy ([2]; Day 7) | Geometric mean group live parasite counts ([2]; Day 7) | % efficacy ([2]; Day 14) | Geometric mean group live parasite counts ([2]; Day 14) | % efficacy ([2]; Day 21) | Geometric mean group live parasite counts ([2]; Day 21) | Geometric mean group live parasite counts ([2]; Day 30) | Geometric mean group live parasite counts [3] | Geometric mean group live parasite counts [4] | tolerability [5] | efficacy (% reduction in live tick counts) [6] |
| --- | --- | --- | --- | --- | --- | --- | --- | --- | --- | --- | --- | --- | --- | --- | --- | --- |
| Cc1cc(C2=NO[C@@](c3cc(Cl)c(Cl)c(Cl)c3)(C(F)(F)F)C2)ccc1C(=O)NCc1ccc2c(c1)B(O)OC2(C)C [Compound 9, (S)—N-((1-hydroxy-3,3-dimethyl-1,3-dihydrobenzo[c][1,2]oxaborol-6-yl)methyl)-2-methyl-4-(5-(3,4,5-trichlorophenyl)-5-(trifluoromethyl)-4,5-dihydroisoxazol-3-yl)benzamide] | ≥ 80% | 100% | 0.0 | (100) % | 0.0 | (100) % | 0.0 | (100) % | 0.0 | (100) % | 0.0 | 1.1 | 0.5 | 0.9 | well tolerated | – |
| N#Cc1nn(-c2c(Cl)cc(C(F)(F)F)cc2Cl)c(N)c1[S+]([O-])C(F)(F)F (stereo not shown) [Fipronil, fipronil, reference compound] | – | – | – | – | – | – | – | – | – | – | – | – | – | – | – | > 95% |
